Here are results for six compounds from ChEMBL document CHEMBL2380195 (J Med Chem, 2013).

The source made the active and inactive calls. No cut-off for these calls is given here.

For data set [1], the target named is T1, Prostaglandin G/H synthase 1 (Homo sapiens, UniProt P23219). The data set is described as follows: Reversible inhibition of COX-1 in human THP1 cells assessed as inhibition of arachidonic acid-induced TXB2 formation at 100 uM incubated for 30 mins followed by compound washout measured 30 mins post arachidonic acid challenge by radioimmunoassay. The following applies: THP-1. Format: cell-based.
T1 sequence (P23219 whole entry): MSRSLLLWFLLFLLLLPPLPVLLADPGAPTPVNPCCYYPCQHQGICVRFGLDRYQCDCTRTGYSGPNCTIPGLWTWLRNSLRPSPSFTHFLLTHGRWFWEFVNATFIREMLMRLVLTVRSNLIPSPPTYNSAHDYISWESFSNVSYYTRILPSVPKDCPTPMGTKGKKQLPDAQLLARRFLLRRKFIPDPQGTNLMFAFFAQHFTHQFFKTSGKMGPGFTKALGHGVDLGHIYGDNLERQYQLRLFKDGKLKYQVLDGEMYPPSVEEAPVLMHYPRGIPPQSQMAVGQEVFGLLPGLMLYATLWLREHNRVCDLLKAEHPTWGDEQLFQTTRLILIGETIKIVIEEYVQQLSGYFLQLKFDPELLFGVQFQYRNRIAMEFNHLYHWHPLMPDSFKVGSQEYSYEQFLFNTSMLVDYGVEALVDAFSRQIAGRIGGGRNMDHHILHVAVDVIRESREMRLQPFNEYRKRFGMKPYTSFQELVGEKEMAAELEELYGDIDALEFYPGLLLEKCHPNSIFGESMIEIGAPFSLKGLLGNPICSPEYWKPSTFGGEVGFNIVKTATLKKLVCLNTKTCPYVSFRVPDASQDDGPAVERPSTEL

In data set [2] the target is T1, Prostaglandin G/H synthase 1. The experiment in a line: Inhibition of COX-1 in human THP1 cells assessed as inhibition of arachidonic acid-induced TXB2 formation at 100 uM incubated for 30 mins prior to arachidonic acid challenge measured after 30 mins by radioimmunoassay relative to vehicle-treated control. Format: cell-based. The following applies: THP-1.
Data set [3] shares this target. The experiment in a line: Inhibition of COX-1 in human washed platelet assessed as rightward shift in 10 uM arachidonic acid-induced TXB2 formation at 0.01 to 100 uM incubated for 25 mins prior to arachidonic acid challenge measured after 30 mins by radioimmunoassay.
Data set [4] shares this target. The data set is described as follows: Inhibition of COX-1 (unknown origin) in platelet rich plasma assessed as inhibition of collagen-induced TXB2 formation incubated for 5 mins prior to collagen challenge measured for 5 mins by aggregometric analysis.
For data set [5] the target is unchanged. The data set is described as follows: Inhibition of COX-1 (unknown origin) in platelet rich plasma assessed as inhibition of arachidonic acid-induced TXB2 formation incubated for 5 mins prior to arachidonic acid challenge measured for 5 mins by aggregometric analysis.
The target is the same in data set [6]. The data set is described as follows: Inhibition of COX-1 (unknown origin) in platelet rich plasma assessed as inhibition of collagen-induced platelet aggregation at 30 uM incubated for 5 mins prior to collagen challenge measured for 5 mins by aggregometric analysis relative to vehicle-treated control.
Data set [7] has the same target. The experiment in a line: Inhibition of COX-1 (unknown origin) in platelet rich plasma assessed as inhibition of arachidonic acid-induced platelet aggregation at 30 uM incubated for 5 mins prior to arachidonic acid challenge measured for 5 mins by aggregometric analysis relative to vehicle-treated control.
Data set [8] has as its target T2, Prostaglandin G/H synthase 2 (Homo sapiens) (UniProt P35354).
T2 sequence (whole entry): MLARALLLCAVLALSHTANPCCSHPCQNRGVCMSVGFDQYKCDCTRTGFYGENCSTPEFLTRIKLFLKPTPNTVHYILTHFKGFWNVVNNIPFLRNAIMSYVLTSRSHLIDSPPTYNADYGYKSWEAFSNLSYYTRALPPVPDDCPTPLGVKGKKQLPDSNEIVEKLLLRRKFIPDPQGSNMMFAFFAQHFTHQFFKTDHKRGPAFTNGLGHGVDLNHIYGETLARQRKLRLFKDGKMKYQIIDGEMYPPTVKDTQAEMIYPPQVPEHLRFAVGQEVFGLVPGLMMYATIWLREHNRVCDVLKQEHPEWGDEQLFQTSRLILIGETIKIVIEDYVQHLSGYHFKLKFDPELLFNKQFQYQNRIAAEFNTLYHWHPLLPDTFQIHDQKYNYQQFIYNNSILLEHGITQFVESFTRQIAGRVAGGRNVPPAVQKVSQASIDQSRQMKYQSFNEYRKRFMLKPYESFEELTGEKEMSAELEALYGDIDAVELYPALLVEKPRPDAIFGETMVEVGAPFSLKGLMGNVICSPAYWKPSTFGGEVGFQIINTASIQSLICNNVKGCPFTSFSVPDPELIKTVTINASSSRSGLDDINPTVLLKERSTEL
The data set is described as follows: Inhibition of COX-2 in human whole blood assessed as inhibition of LPS-induced plasma PGE2 level at 1000 uM by radioimmunoassay relative to control.

Data set [9] deals with COX-1/COX-2 (Homo sapiens) (UniProt P35354+P23219). The data set is described as follows: Selectivity ratio of IC50 for COX-2 in human whole blood to COX-1 in human whole blood. Format: tissue-based.
Data set [10] has as its target T1, Prostaglandin G/H synthase 1. The experiment in a line: Inhibition of COX-1 in human whole blood assessed as inhibition of serum TXB2 level after 1 hr by radioimmunoassay.
For data set [11] the target is unchanged. The following applies: at 0.01 to 100 µM.
Data set [12] has as its target Prostaglandin G/H synthase 2 (Homo sapiens) (UniProt P35354). The data set is described as follows: Inhibition of COX-2 in human MDA-MB-231 cells assessed as inhibition of arachidonic acid-induced PGE2 formation at 100 uM incubated for 30 mins prior to arachidonic acid challenge measured after 30 mins by radioimmunoassay relative to vehicle-treated control.
The target of data set [13] is T1, Prostaglandin G/H synthase 1. The data set is described as follows: Irreversible inhibition of COX-1 in human THP1 cells assessed as inhibition of arachidonic acid-induced TXB2 formation at 100 uM incubated for 30 mins followed by compound washout measured 30 mins post arachidonic acid challenge by radioimmunoassay. Particulars: THP-1. Format: cell-based.
Data set [14] has the same target. The data set is described as follows: Inhibition of COX-1 in human washed platelet assessed as inhibition of 10 uM arachidonic acid-induced TXB2 formation at 0.01 to 100 uM incubated for 25 mins prior to arachidonic acid challenge measured after 30 mins by radioimmunoassay.
Data set [15] has the same target. The data set is described as follows: Inhibition of COX-1 (unknown origin) in platelet rich plasma assessed as inhibition of collagen-induced platelet aggregation at 10 uM incubated for 5 mins prior to collagen challenge measured for 5 mins by aggregometric analysis relative to vehicle-treated control.
The target is the same in data set [16]. The data set is described as follows: Inhibition of COX-1 (unknown origin) in platelet rich plasma assessed as inhibition of collagen-induced platelet aggregation up to 3 uM incubated for 5 mins prior to collagen challenge measured for 5 mins by aggregometric analysis.
Data set [17] has the same target. The experiment in a line: Inhibition of COX-1 (unknown origin) in platelet rich plasma assessed as inhibition of collagen-induced platelet aggregation incubated for 5 mins prior to collagen challenge measured for 5 mins by aggregometric analysis.
For data set [18] the target is unchanged. The experiment in a line: Inhibition of COX-1 (unknown origin) in platelet rich plasma assessed as inhibition of arachidonic acid-induced platelet aggregation at 10 uM incubated for 5 mins prior to arachidonic acid challenge measured for 5 mins by aggregometric analysis relative to vehicle-treated control.
For data set [19] the target is unchanged. The data set is described as follows: Inhibition of COX-1 (unknown origin) in platelet rich plasma assessed as inhibition of arachidonic acid-induced platelet aggregation up to 3 uM incubated for 5 mins prior to arachidonic acid challenge measured for 5 mins by aggregometric analysis.
Data set [20] can be described thus: Binding affinity to human alpha1-acid glycoprotein by HPLC analysis relative to control. Format: ADME. The following applies: pooled result: one value given for 2 cell lines, strains, targets or settings.
The target of data set [21] is T3, Prostaglandin G/H synthase 2 (Homo sapiens, UniProt P35354).
T3 sequence (P35354 whole entry): T2 sequence (whole entry)
The experiment in a line: Inhibition of COX-2 in human whole blood assessed as inhibition of LPS-induced plasma PGE2 level by radioimmunoassay.

Data set [22] deals with Prostaglandin G/H synthase 2 (Homo sapiens) (UniProt P35354). The experiment in a line: Irreversible inhibition of COX-2 in human MDA-MB-231 cells assessed as inhibition of arachidonic acid-induced PGE2 formation at 100 uM incubated for 30 mins followed by compound washout measured 30 mins post arachidonic acid challenge by radioimmunoassay.
For data set [23], the species on record is Mus musculus. The data set is described as follows: Antithrombotic activity in LDLR-/- C57BL/6 mouse assessed as reduction of 11-dehydro-TXB2 level in urine at 30 mg/L after 18 weeks relative to vehicle-treated control. Format: functional. Also noted: scale not given: the % may be the effect or the level left.
The test system of data set [24] is Homo sapiens. The data set is described as follows: Antithrombotic activity in human assessed as reduction of 11-dehydro-TXB2 level in urine at 100 mg/day administered 6 days measured for 24 hrs post last dose relative to vehicle-treated control. Format: functional. Also noted: scale not given: the % may be the effect or the level left.
Data set [25] deals with Prostaglandin G/H synthase 2 (Homo sapiens) (UniProt P35354). The data set is described as follows: Reversible inhibition of COX-2 in human MDA-MB-231 cells assessed as inhibition of arachidonic acid-induced PGE2 formation at 100 uM incubated for 30 mins followed by compound washout measured 30 mins post arachidonic acid challenge by radioimmunoassay.
Data set [26] concerns Mus musculus. The data set is described as follows: Antithrombotic activity in C57BL/6 mouse assessed as reduction of 6-keto-PGF1alpha level in urine at 20 mg/kg, po administered 3 days measured for 24 hrs post third dose. Format: functional, organism-based. Also noted: dose 20 mg/kg.
Data set [27] relates to Mus musculus. The data set is described as follows: Antithrombotic activity in C57BL/6 mouse assessed as reduction of 11-dehydro-TXB2 level in urine at 20 mg/kg, po administered 3 days measured for 24 hrs post third dose relative to vehicle-treated control. Also noted: scale not given: the % may be the effect or the level left. Format: functional.

Consider `CC(=O)OCc1onc(-c2ccc(Cl)o2)c1-c1ccccc1`, for which the inhibition entry in data set [1], in data set [3] and in [11] was “Active” each time. Also, the inhibition – broadly, how much of the control response was suppressed – was above 90% in [2], 62% in [6], 97% in [7] and 40% in [8]. Moreover, the IC50 (as a rule, the concentration that gives 50% inhibition) worked out at 23 µM in data set [4], 20 µM in data set [5] and 5 µM in data set [10]. Moreover, the Ratio IC50 in data set [9] is above 20. In addition, in [12], the inhibition entry was “inactive”.

For the compound `Cc1ccc(-c2noc(C)c2-c2ccccc2)o1`, the inhibition entry in [13], in data set [14], in data set [11] and in [22] was “Active” throughout. Moreover, the inhibition in data set [2] was above 90%; in data set [4] it was “Dose-dependent effect”; in data set [5], “Dose-dependent effect”; in data set [15], 66%; in [17], “Dose-dependent effect”; in [18], 97.8%. The inhibition in [12] stood at 70%. Moreover, the half-maximal inhibitory concentration (IC50) was 7.4 µM in data set [4], 4.3 µM in data set [5], 68.2 µM in data set [21] and 0.32 µM in data set [10]. Besides, the inhibition result in data set [16] and in [19] was “inactive” throughout. Moreover, the Activity in [20] worked out at 94.7%. Besides, the Ratio IC50 in [9] came to 213.

For the compound `CC(=O)Oc1ccccc1C(=O)O` [ASPIRIN], the Activity in data set [23] and in data set [24] was 70% in each case. Also, the inhibition result in [13], in [14] and in data set [11] was “Active” in each case. In addition, the inhibition in data set [2] is above 90%.

With `Cc1onc(-c2ccc(Br)o2)c1-c1ccccc1`, the inhibition result in data set [13], in data set [14], in [11] and in [25] was “Active” each time. For the same compound, the inhibition in data set [2] was above 90%; in data set [4] it was “Dose-dependent effect”; in [5] it was “Dose-dependent effect”; in [15], 78%; in [17], “Dose-dependent effect”; in [18], 96.3%. The inhibition in data set [12] is 70%. Further, the IC50 amounted to 7.6 µM in [4], 3.4 µM in [5], 34 µM in data set [21] and 0.33 µM in [10]. Moreover, the inhibition entry in data set [16] and in data set [19] was “inactive” throughout. In addition, in data set [20], the Activity is 96.1%. The Ratio IC50 in [9] was 103.

As for `CC(C)Cc1ccc(C(C)C(=O)O)cc1` (stereo not drawn), the inhibition entry in data set [1] is “Active”. Moreover, the inhibition in [2] is above 90%.

For the compound `FC(F)(F)c1onc(-c2ccc(Cl)o2)c1-c1ccccc1`, the outcome in [26] was inactive. In addition, the values for the Activity in data set [27] and in data set [20] were 70% and 94.3%, respectively. Moreover, the inhibition entry in data set [13], in data set [14], in [11] and in data set [25] was “Active” in each case. In addition, the inhibition in data set [2] was above 90%; in data set [4], “Dose-dependent effect”; in data set [5] it was “Dose-dependent effect”; in data set [15] it was 72%; in data set [17], “Dose-dependent effect”; in data set [18], 99.2%. Besides, the inhibition in data set [8] amounted to 49%; in data set [12] it was 70%. Besides, the figures for the IC50 in [4] and in data set [5] were 10 µM and 3.7 µM, respectively. For the same compound, the inhibition entry in data set [16] and in data set [19] was “inactive” each time. Also, the Ratio IC50 in data set [9] was above 123.
